{"source": "patent US20080317883A1", "about": "“METHODS FOR TREATING DEPRESSION” (priority 2006, published 2008)", "key": {"Male CF-1 mice": {"test_system": "Male CF-1 mice", "experiment": "Forced swimming test in mice (behavioral despair)", "type": "in vivo", "settings": "1 h before test; for reduction in immobility: 4-minute test period", "from_the_text": "Porsolt (1977) proposed a model for screening antidepressants in mice, called the “behavioral despair” test. (See, Porsolt, R D et al. Behavioral despair in mice: A preliminary screening test for antidepressants. Arch Int Pharmacodyn Ther 229; 327-336:1977 and Porsolt, R D et al. Behavioral despair in rats: a new model sensitive to antidepressant treatments, Eur. J. Pharmacol., 47, 379-391, 1978). This test is also called the forced swim test In this test, a mouse is placed in a container of water and swims, apparently trying to escape. The animal then alternates periods of swimming and floating, i.e., remaining immobile. Antidepressants are among those drugs that reduce the periods of immobility. In the present report COMPOUND #7 was tested in the forced swimming procedure in mice to determine whether the compound had any potential antidepressant activity.\nMale CF-1 mice (18-22 g) were purchased from Charles River Breeding Laboratories, Kingston, N.Y. Animals were housed in standing wire cages with free access to food and water. Experiments were initiated only after an acclimation period of at least 3 days to the animal room environment which consisted of automatically controlled illumination with a 12-hour light/dark cycle and controlled temperature and relative humidity.\nCOMPOUND #7 was dissolved in 30% polyethylene glycol 400 in deionized water and administered to animals by oral gavage in a volume of 0.1 ml/10 g body weight.\nThe method was similar to that described by Porsolt et al. (1977)1 with minor modifications (See, Porsolt R D, Bertin A, Jalfre M. Behavioral despair in mice: A preliminary screening test for antidepressants. Arch Int Pharmacodyn Ther 229; 327-336:1977)\nMice were pre-swum the day before the test for 5 minutes. On the test day, mice were dosed orally with either test compound or vehicle. One hour later each animal was placed in a glass cylinder (1000-ml beaker; height 14 cm, diameter 11.5 cm) containing water up to a height of 9 cm (water temperature at 25° C.). Following a 2-minute pretest, immobility of each mouse was recorded for a 4-minute test period. Immobility was defined as the animal making only those movements to stay afloat, especially combined with lack of movement of its hind legs. Each group consisted of 8 mice."}, "Male NMRI mice": {"test_system": "Male NMRI mice", "experiment": "Mouse tail suspension test (TST)", "type": "in vivo", "procedure": "The tail suspension test (TST) is an acute test which is predictive of anti-depressant activity of a test compound. (See, Steru, L. et al. Psychopharmacology, 85, 367-370, 1985)\nMale NMRI mice (22-26 g; n=12 mice per dose) is given a single dose of vehicle (aqueous solution of 1 equivalent tartaric acid+0.45% NaCl+10% cyclodextrin, i.p.), imipramine (128 mg/kg, p.o. in an aqueous solution of 0.9% NaCl) or COMPOUND #7 (at 1, 3 AND 30 mg/kg, p.o.) 60 min prior to tail suspension. All substances were administered in a volume of […]. In this test, the mice are submitted to an unpleasant and inescapable situation (i.e. hanging by the tail) for 6 min. Once suspended, motor activity diminishes rapidly and the mice become immobile. A compound is considered active as an antidepressant in this model, when there is a reduction in immobility time. Viewpoint video-tracking software is utilized to record immobility time."}, "submissive rats [1]": {"test_system": "submissive rats", "experiment": "Reduction of Submissive Behavior Model (RSBM) of depression, dominant-submissive rat food competition test", "type": "in vivo, Sprague-Dawley rats", "from_the_text": "(§1) In this study, the effects of COMPOUND #7 on dominant or submissive behavior in pairs of rats competing for food are examined. It has been shown that anti-manic drugs, including anticonvulsants, decrease dominance and antidepressant drugs reduce submissiveness. This model uses dominant behavior as a model of mania and submissive behavior as a model of depression. The dominance and submissiveness is defined in a competition test and measured as the relative success of two food-restricted rats to gain access to a feeder. Rats are randomly paired and placed in an apparatus allowing them to compete for a food reward. The dominant-submissive relationship develops over a 2-week period. The submissive or dominant animals in pairs selected after 2 weeks of training were treated orally […] (b.i.d.) with COMPOUND #7 at 3 or 30 mg/kg for 5 weeks. The partner of the drug-treated animal was treated with vehicle.\n(§2) The objective of this study was to determine if COMPOUND #7 active in the Reduction of Submissive Behavior Model (RSBM) of depression and the Reduction of Dominant Behavior Model (RDBM) of mania. Measurements were made at two doses (3 and 30 mg/kg) after oral twice a day (b.i.d.) administration. The effect of the drug in the RSBM was compared to the effect of fluoxetine (10 mg/kg) and vehicle (0.5% methylcellulose). The effect of the drug in the RDBM was compared with the effect of lithium (100 mg/kg) and vehicle (0.5% methylcellulose). The endpoints measured were the development of a significant reduction of submissive or dominant behavior and its time of onset.\nThe DSR developed by two rats competing for food uses the apparatus in FIG. 1. The methodology and equipment are described in several publications; (See: Malatynska E, Goldenberg R, Shuck L, Haque A, Zamecki P, Crites G, Schindler N, Knapp R J. Reduction of submissive behavior in rats: a test for antidepressant drug activity. Pharmacology 2002; 64:8; Malatynska E, Rapp R, Crites G. Dominant behavior measured in a competition test as a model of mania. In: International Behavioral Neuroscience Society Meeting, ed. IBNSCapri, Italy, 2002, p 26; Carpenter L L, Leon Z, Yasmin S, Price L H. Do obese depressed patients respond to topiramate? A retrospective chart review. J Affect Disord 2002; 69:251; McElroy S L, Zarate C A, Cookson J, Suppes T, Huffman R F, Greene P, Ascher J. A 52-week, open-label continuation study of lamotrigine in the treatment of bipolar depression. J Clin Psychiatry 2004; 65:204; Bonnet U. Moclobemide: therapeutic use and clinical studies. CNS Drug Rev 2003; 9:97; Danysz W, Plaznik A, Kostowski W, Malatynska E, Jarbe T U, Hiltunen A J, Archer T. Comparison of desipramine, amitriptyline, zimeldine and alaproclate in six animal models used to investigate antidepressant drugs. Pharmacol Toxicol 1988; 62:42; Knapp R J, Goldenberg R, Shuck C, Cecil A, Watkins J, Miller C, Crites G, Malatynska E. Antidepressant activity of memory-enhancing drugs in the reduction of submissive behavior model. Eur J Pharmacol 2002; 440:27; Kostowski W, Malatynska E, Plaznik A, Dyr W, Danysz W. Comparative studies on antidepressant action of alprazolam in different animal models. Pol J Pharmacol Pharm 1986; 38, 471 and Malatynska E, De Leon I, Allen D, Yamamura H I. Effects of amitriptyline on GABA-stimulated ^36Cl^− uptake in relation to a behavioral model of depression. Brain Res Bull 1995; 37:53) In the experiments described in this report Sprague-Dawley rats weighing 160 to 180 g were used. […]"}, "[2]": {"test_system": "Male rats of Wistar (Han) strain", "experiment": "Behavioral despair or forced swim test in the rat", "type": "in vivo", "settings": "4 hours and 60 minutes before the test, 5 minute test", "from_the_text": "The behavioral despair or forced swim test (FST) in rats as in mice (see Example 2) is an acute test of anti-depressant activity. Antidepressant-like compounds are known to be active in this assay (e.g., tricyclics, MAO inhibitors, SSRIs), although activity can vary with mouse strain differences, as would be known to one of skill in the art. (See, Porsolt, R D et al. Behavioral despair in rats: a new model sensitive to antidepressant treatments, Eur. J. Pharmacol., 47, 379-391, 1978) and also (see; Porsolt, R D et al. Behavioral despair in mice: A preliminary screening test for antidepressants. Arch Int Pharmacodyn Ther 229; 327-336:1977)\nThe assay procedure is as follows. Male rats of Wistar (Han) strain, 185-245 g body weight supplied by Elevage Janvier, 53940 Le Genest-Saint-Isle, France were used. These animals were administered 1, 3 and 30 mg/kg of COMPOUND #7 p.o. 24 hours, 4 hours and 60 minutes before the test. Active control animals were given imipramine 64 mg/kg under the same conditions. […] Imipramine at 64 mg/kg administered under the same experimental conditions decreased the duration of immobility by 44% as compared to vehicle."}, "dominant rats [3]": {"test_system": "dominant rats", "experiment": "Reduction of Dominant Behavior Model (RDBM) of mania, dominant-submissive rat food competition test", "type": "in vivo, Sprague-Dawley rats", "from_the_text": "as §1, §2\nThe DSR developed by two rats competing for food uses the apparatus in FIG. 1. The methodology and equipment are described in several publications; (See: Malatynska E, Goldenberg R, Shuck L, Haque A, Zamecki P, Crites G, Schindler N, Knapp R J. Reduction of submissive behavior in rats: a test for antidepressant drug activity. Pharmacology 2002; 64:8; Malatynska E, Rapp R, Crites G. Dominant behavior measured in a competition test as a model of mania. In: International Behavioral Neuroscience Society Meeting, ed. IBNSCapri, Italy, 2002, p 26; Carpenter L L, Leon Z, Yasmin S, Price L H. Do obese depressed patients respond to topiramate? A retrospective chart review. J Affect Disord 2002; 69:251; McElroy S L, Zarate C A, Cookson J, Suppes T, Huffman R F, Greene P, Ascher J. A 52-week, open-label continuation study of lamotrigine in the treatment of bipolar depression. J Clin Psychiatry 2004; 65:204; Bonnet U. Moclobemide: therapeutic use and clinical studies. CNS Drug Rev 2003; 9:97; Danysz W, Plaznik A, Kostowski W, Malatynska E, Jarbe T U, Hiltunen A J, Archer T. Comparison of desipramine, amitriptyline, zimeldine and alaproclate in six animal models used to investigate antidepressant drugs. […]"}, "dominant rats [4]": {"test_system": "dominant rats", "settings": "administered to dominant rats, literature; cited from earlier work"}, "submissive rats [5]": {"test_system": "submissive rats", "settings": "literature, cited from earlier work"}, "[6]": {"settings": "treatment of the submissive subject for 3 weeks"}}, "note": "Read-outs that look alike come from different tables or passages of the source.", "data": [{"molecule": "NC(=O)OC[C@@H](O)c1ccccc1Cl", "note": "[COMPOUND #7]", "values": [{"measurement": "reduction in immobility", "setting": "Male CF-1 mice; 1 mg/kg oral", "result": 25, "unit": "%"}, {"measurement": "reduction in immobility", "setting": "Male CF-1 mice; 3 mg/kg oral", "result": 28, "unit": "%"}, {"measurement": "reduction in immobility", "setting": "Male CF-1 mice; 10 mg/kg oral", "result": 43, "unit": "%"}, {"measurement": "reduction in immobility (significance)", "setting": "Male CF-1 mice; 17.3 mg/kg oral", "result": "not significant"}, {"measurement": "reduction in immobility (significance)", "setting": "Male CF-1 mice; 30 mg/kg oral", "result": "not significant"}, {"measurement": "effect on duration of immobility", "setting": "Male NMRI mice; 1, 3 and 30 mg/kg p.o. 60 minutes before the test", "result": "did not affect the duration of immobility"}, {"measurement": "effect on submissive rat behavior (time spent on feeder)", "setting": "submissive rats [1]; 3 mg/kg b.i.d. p.o. for 5 weeks, submissive rat treated, partner vehicle", "result": "did not have any effect"}, {"measurement": "onset of increased competitiveness of submissive rats (treatment time)", "setting": "submissive rats [1]; 30 mg/kg b.i.d. p.o.", "result": 1, "unit": "week"}, {"measurement": "effect on competitiveness of submissive rat (time spent on feeder, dominance level)", "setting": "submissive rats [1]; 30 mg/kg b.i.d. p.o. for 5 weeks, vs vehicle-treated submissive rats", "result": "significantly increased competitiveness"}, {"measurement": "effect on duration of immobility", "setting": "[2]; 1, 3 and 30 mg/kg p.o. 24 hours", "result": "did not affect the duration of immobility"}, {"measurement": "onset of significant decrease of dominant rat performance (treatment time)", "setting": "dominant rats [3]; 3 mg/kg b.i.d. p.o.", "result": 3, "unit": "weeks"}, {"measurement": "effect on performance of dominant rats (time spent on feeder)", "setting": "dominant rats [3]; 3 mg/kg b.i.d. p.o. for 5 weeks, dominant rat treated, partner vehicle", "result": "decreased the performance of dominant rats"}, {"measurement": "onset of increased competitiveness of dominant rats (treatment time)", "setting": "dominant rats [3]; 30 mg/kg b.i.d. p.o.", "result": 2, "unit": "weeks"}, {"measurement": "effect on competitiveness of dominant rats", "setting": "dominant rats [3]; 30 mg/kg b.i.d. p.o. for 5 weeks, vs vehicle treated dominant rats", "result": "significantly increased the competitiveness"}]}, {"molecule": "CC(N)Cc1ccccc1", "note": "(stereo not shown) [amphetamine, reference compound]", "values": [{"measurement": "effect on submissive behavior", "setting": "submissive rats [1]; treatment of submissive rats, psychostimulant, unpublished observation", "result": "ineffective"}]}, {"molecule": "NC(=O)N1c2ccccc2C=Cc2ccccc21", "note": "[carbamazepine]", "values": [{"measurement": "effect on competitive behavior of dominant rats", "setting": "dominant rats [4]", "result": "significantly reduced competitive behavior"}]}, {"molecule": "Clc1cccc(Cl)c1N=C1NCCN1", "note": "[clonidine]", "values": [{"measurement": "effect on competitive behavior of dominant rats", "setting": "dominant rats [4]", "result": "significantly reduced competitive behavior"}]}, {"molecule": "CNCCCN1c2ccccc2CCc2ccccc21", "note": "[desipramine]", "values": [{"measurement": "effect on submissive behavior", "setting": "submissive rats [5]; [6]", "result": "reduced submissive behavior"}]}, {"molecule": "CN1C(=O)CN=C(c2ccccc2)c2cc(Cl)ccc21", "note": "[diazepam]", "values": [{"measurement": "effect on submissive behavior", "setting": "submissive rats [5]; treatment of submissive rats, anxiolytic", "result": "ineffective"}]}, {"molecule": "CNCCC(Oc1ccc(C(F)(F)F)cc1)c1ccccc1", "note": "(stereo not shown) [fluoxetine, reference compound]", "values": [{"measurement": "effect on submissive behavior", "setting": "submissive rats [5]; [6]", "result": "reduced submissive behavior"}, {"measurement": "onset of significant effect in submissive rats (treatment time)", "setting": "submissive rats [1]; 10 mg/kg i.p. once a day, previous experimental set", "result": 3, "unit": "weeks"}]}, {"molecule": "CN(C)CCCN1c2ccccc2CCc2ccccc21", "note": "[imipramine, reference compound]", "values": [{"measurement": "decrease of duration of immobility as compared with control", "setting": "Male NMRI mice; 128 mg/kg p.o. 60 minutes before the test", "result": "−69", "unit": "%"}, {"measurement": "effect on submissive behavior", "setting": "submissive rats [5]; [6]", "result": "reduced submissive behavior"}, {"measurement": "decrease of duration of immobility as compared to vehicle", "setting": "[2]; 64 mg/kg p.o. 24 hours", "result": 44, "unit": "%"}]}, {"molecule": "CCCC(CCC)C(=O)[O-].[Na+]", "note": "[sodium valproate]", "values": [{"measurement": "effect on competitive behavior of dominant rats", "setting": "dominant rats [4]", "result": "significantly reduced competitive behavior"}]}]}
